Active and inactive are the calls of the source. The calls are words filed in the database; no cut-off is given here.
Tests used:
[1] = test system: KYSE-70 cell line; assay: Induction of apoptosis in human KYSE-70 cells assessed as late apoptotic cells at 20 nmol/L incubated for 48 hrs by Annexin V-FITC/PI staining based flow cytometry analysis (reference value: 3.01%); format: functional
[2] = test system: MGC-803; assay: Antiproliferative activity against human MGC-803 cells assessed as inhibition of cell proliferation incubated for 48 hrs by MTT assay; format: functional, cell-based; conditions: MGC-803, 48 h
[3] = target: Tubulin beta (Homo sapiens) (UniProt P68371+Q9H4B7+Q13509+P04350+Q3ZCM7+P07437+Q13885+Q9BVA1+Q9BUF5+A6NNZ2); assay: Binding affinity to beta-tubulin colchicine binding site in human KYSE-30 cells assessed as inhibition of EBI-beta-tubulin adduct band formation at 0 to 10 micromol/L preincubated for 2 hrs followed by EBI addition measured after 2 hrs by EBI competition based Western blotting analysis; format: cell-based; conditions: dose 0-10 µmol/L, time 4.0 hrs
[4] = target: T1, Tubulin (Homo sapiens) (UniProt P68371+Q9H4B7+P0DPH7+P68366+Q13509+Q71U36+P04350+Q3ZCM7+P07437+P68363+Q9BQE3+Q6PEY2+Q13885+Q9BVA1+Q9BUF5); assay: Inhibition of tubulin polymerization in human KYSE-30 cells assessed as reduction in filamentous microtubule structure formation at 5 to 20 nmol/L incubated for 24 hrs by DAPI staining based fluorescence microscopic analysis; format: cell-based; conditions: dose 5-20 nmol/L
[5] = test system: KYSE-30; assay: Inhibition of colony formation in human KYSE-30 cells at 4 nmol/L incubated for 7 days by crystal violet staining based analysis; format: functional, cell-based; conditions: time 7.0 day
[6] = test system: KYSE-30; assay: Induction of morphological changes in human KYSE-30 cells assessed as deformation at 5 to 20 nmol/L incubated for 48 hrs by Bright field microscopic analysis; format: functional, cell-based; conditions: dose 5-20 nmol/L
[7] = test system: KYSE-30; assay: Induction of morphological changes in human KYSE-30 cells assessed as fragmentation at 5 to 20 nmol/L incubated for 48 hrs by Bright field microscopic analysis; format: functional, cell-based; conditions: dose 5-20 nmol/L
[8] = test system: KYSE-30; assay: Induction of morphological changes in human KYSE-30 cells assessed as decrease in cell density at 5 to 20 nmol/L incubated for 48 hrs by Calcein AM/PI staining based inverted fluorescence microscopic analysis; format: functional; conditions: dose 5-20 nmol/L
[9] = test system: KYSE-30; assay: Induction of morphological changes in human KYSE-30 cells assessed as induction of fragmentation in nuclei at 5 to 20 nmol/L incubated for 48 hrs by DAPI staining based fluorescence microscopic analysis; format: functional, cell-based; conditions: dose 5-20 nmol/L
[10] = test system: KYSE-30; assay: Induction of apoptosis in human KYSE-30 cells assessed as viable cells at 5 nmol/L incubated for 48 hrs by Annexin V-FITC/PI staining based flow cytometry analysis (reference value: 88.76 %); format: functional; conditions: read-out: Activity
[11] = test system: KYSE-30; assay: Induction of apoptosis in human KYSE-30 cells assessed as late apoptotic cells at 10 nmol/L incubated for 48 hrs by Annexin V-FITC/PI staining based flow cytometry analysis (reference value: 5.27 %); format: functional
[12] = test system: KYSE-30; assay: Induction of apoptosis in human KYSE-30 cells assessed as necrotic cells at 10 nmol/L incubated for 48 hrs by Annexin V-FITC/PI staining based flow cytometry analysis (reference value: 1.59 %); format: functional
[13] = test system: KYSE-30; assay: Induction of apoptosis in human KYSE-30 cells assessed as viable cells at 20 nmol/L incubated for 48 hrs by Annexin V-FITC/PI staining based flow cytometry analysis (reference value: 88.76 %); format: functional; conditions: read-out: Activity
[14] = test system: KYSE-30; assay: Induction of apoptosis in human KYSE-30 cells assessed as necrotic cells at 20 nmol/L incubated for 48 hrs by Annexin V-FITC/PI staining based flow cytometry analysis (reference value: 1.59 %); format: functional
[15] = test system: KYSE-70 cell line; assay: Induction of apoptosis in human KYSE-70 cells assessed as late apoptotic cells at 5 nmol/L incubated for 48 hrs by Annexin V-FITC/PI staining based flow cytometry analysis (reference value: 3.01%); format: functional
[16] = test system: KYSE-70 cell line; assay: Induction of apoptosis in human KYSE-70 cells assessed as early apoptotic cells at 10 nmol/L incubated for 48 hrs by Annexin V-FITC/PI staining based flow cytometry analysis (reference value: 1.78%); format: functional
[17] = test system: Esophageal squamous cell carcinoma cell; assay: Induction of apoptosis in human Esophageal squamous cell carcinoma cell assessed as increase in caspase-3 activation at 5 to 20 nmol/L incubated for 48 hrs by Western blot analysis; format: functional, cell-based; conditions: dose 5-20 nmol/L
[18] = test system: Esophageal squamous cell carcinoma cell; assay: Induction of apoptosis in human Esophageal squamous cell carcinoma cell assessed as increase in caspase-9 activation at 5 to 20 nmol/L incubated for 48 hrs by Western blot analysis; format: functional, cell-based; conditions: dose 5-20 nmol/L
[19] = test system: Esophageal squamous cell carcinoma cell; assay: Induction of apoptosis in human Esophageal squamous cell carcinoma cell assessed as increase in cleaved-PARP level at 5 to 20 nmol/L incubated for 48 hrs by Western blot analysis; format: functional, cell-based; conditions: dose 5-20 nmol/L
[20] = test system: KYSE-30; assay: Antitumor activity against human KYSE-30 cells xenografted in female BALB/c-nu nude mouse assessed as reduction in tumor volume at 6 to 12 mg/kg, ip administered daily for 15 days; format: functional, organism-based; conditions: dose 6-12 mg/kg, time 15.0 day
[21] = Toxicity in female BALB/c-nu nude mouse xenografted with human KYSE-30 cells assessed as effect on serum ALT level at 6 to 12 mg/kg, ip administered for 15 days by biochemical analysis; format: organism-based; conditions: in vivo, 360 h, dose 6-12 mg/kg, time 15 day
[22] = Toxicity in female BALB/c-nu nude mouse xenografted with human KYSE-30 cells assessed as effect on serum total bilirubin level at 6 to 12 mg/kg, ip administered for 15 days by biochemical analysis; format: organism-based; conditions: in vivo, 360 h, dose 6-12 mg/kg, time 15 day
[23] = Toxicity in female BALB/c-nu nude mouse xenografted with human KYSE-30 cells assessed as effect on serum creatinine level at 6 to 12 mg/kg, ip administered for 15 days by biochemical analysis; format: organism-based; conditions: in vivo, 360 h, dose 6-12 mg/kg, time 15 day
[24] = Toxicity in female BALB/c-nu nude mouse xenografted with human KYSE-30 cells assessed as change in kidney pathology at 6 to 12 mg/kg, ip administered for 15 days by H and E staining based analysis; format: organism-based; conditions: in vivo, 360 h, dose 6-12 mg/kg, time 15 day
[25] = target: T1, Tubulin (Homo sapiens); assay: Inhibition of tubulin polymerization in human KYSE-30 cells assessed as effect on mitotic phase at 5 to 20 nmol/L incubated for 24 hrs by DAPI staining based fluorescence microscopic analysis; format: cell-based; conditions: dose 5-20 nmol/L
[26] = target: T1, Tubulin (Homo sapiens); assay: Inhibition of tubulin polymerization in human KYSE-70 cells assessed as effect on mitotic phase at 5 to 20 nmol/L incubated for 24 hrs by DAPI staining based fluorescence microscopic analysis; format: cell-based; conditions: dose 5-20 nmol/L
[27] = test system: KYSE-30; assay: Effect on nuclear replication in human KYSE-30 cells at 5 to 20 nmol/L incubated for 24 hrs by DAPI staining based fluorescence microscopic analysis; format: functional, cell-based; conditions: dose 5-20 nmol/L
[28] = test system: KYSE-70 cell line; assay: Effect on nuclear replication in human KYSE-70 cells at 5 to 20 nmol/L incubated for 24 hrs by DAPI staining based fluorescence microscopic analysis; format: functional, cell-based; conditions: dose 5-20 nmol/L
[29] = target: T1, Tubulin (Homo sapiens); assay: Inhibition of tubulin polymerization in human KYSE-70 cells assessed as multinucleation of cells at 5 to 20 nmol/L incubated for 24 hrs by DAPI staining based fluorescence microscopic analysis; format: cell-based; conditions: dose 5-20 nmol/L
[30] = test system: KYSE-30; assay: cells; conditions: Homo sapiens, KYSE-30, 48 h
Description: Antiproliferative activity against human KYSE-30 cells assessed as inhibition of cell proliferation incubated for 48 hrs by MTT assay

[31] = test system: HCT-116; assay: cells; conditions: Homo sapiens, HCT-116, 48 h
Description: Antiproliferative activity against human HCT-116 cells assessed as inhibition of cell proliferation incubated for 48 hrs by MTT assay

IC50 [2]: 14 nM | Activity [3]: Active | inhibition [4]: Active | inhibition [25]: Active | inhibition [26]: Active | inhibition [29]: Active | IC50 [30]: 13 nM | IC50 [31]: 26 nM
Compound: COc1ccc(-c2cnoc2-c2cc(C)nc3ccccc23)cc1
Activity [1]: 17.48% | inhibition [5]: Active | Activity [6]: Active | Activity [7]: Active | Activity [8]: Active | Activity [9]: Active | viability at 0.005 µM [10]: 38.8% | Activity [11]: 11.91% | Activity [12]: 2.86% | viability at 0.02 µM [13]: 38.9% | Activity [14]: 3.2% | Activity [15]: 6.21% | Activity [16]: 28.93% | Activity [17]: Active | Activity [18]: Active | Activity [19]: Active | Activity [20]: Active | Activity [21]: Non-Toxic | Activity [22]: Non-Toxic | Activity [23]: Non-Toxic | Activity [24]: Non-Toxic | Activity [27]: inactive | Activity [28]: inactive
